Assay results from patent US4398937A, “Selective algaecides for control of cyanochloronta” (The University of Southern Mississippi, priority 1981, dated 1983).
Read-outs that look alike come from different tables or passages of the source.

Tests used:
Assay type in all cases: cell-based
[1] = system: Chlamydomonas sp.; assay: Test tube culture inhibition of Chlamydomonas sp., algal units/ml
Experimental: (§1) The algae used in this particular study were Chlamydomonas sp., Chlorella vulgaris, Anabaena sp., and Anabaena flos-aquae. Cultures of these algae were obtained, subcultured, and aqueous stocks of algae in 400 ml BBM were prepared and were used in log phase growth to innoculate test cultures.
(§2) The fatty acids which were tested as algal inhibitors were 9, 10-dihydroxystearic acid, linoleic acid, dodecanoic acid, and ricinoleic acid.
(§3) The test procedure involved placing 15 ml of BBM into 25 ml test tubes and innoculating them with 0.2 ml of algal stock solution. Twenty test tubes were innoculated with each algae. Four of these cultures were used with each concentration of each of the fatty acids. Four tubes from each set served as controls. Four concentrations of the fatty acids were used for each alga. The concentrations studied were 0.5 PPM, 1.0 PPM, 5.0 PPM, and 10.0 PPM.
(§4) Algal cultures were incubated under constant light of about 200 foot-candles and at a temperature of 68° F. Bold's Basal Medium (BBM), a modification of Bristol's solution was the medium in which all the cultures were grown. Bold's Basal Medium was prepared as follows:
(§5) Concentrations of fatty acids and the amount of stock solution used to prepare them were as follows:
(§6) Each test tube contained 15 ml sterile BBM. To this was added an aliquot of 0.2 of algal stock solution. Then the appropriate aliquots of warm acid stock solution were added to the appropriate number of culture tubes. These cultures were then incubated 5 days and at that point were counted. The same cultures were also counted after a 12 day growth period.
(§7) Stock solutions of the fatty acids to be tested as algal inhibitors were made from a stock solution of 5% sodium bicarbonate in glass-distilled water. The 5% sodium bicarbonate stock solution was made by dissolving 150 grams of sodium bicarbonate in 3000 ml of glass-distilled water. To insure complete dissolution, the solution was heated and stirred on a magnetic stirrer hot plate. The warm solution was used in preparing the fatty acid stock solutions.
(§8) Quanitative phytoplankton values were determined using the random field method. Filaments, colonies, and aggregations of cells were recorded as algal units. Each unit consisted of approximately 6 cells. Unicellular algae were counted as separate units. Algal counts were made from each of three duplicate cultures. One ml of the algal sample was placed in a Sedgwick-Rafter counting chamber, which is 50 mm long by 20 mm, wide by 1 mm deep. A Wild Heerbrugg, compound microscope with a Whipple grid eyepiece was used to determine quantitative algae values.
(§9) One ml of the algal solution was placed in the counting chamber, and two drops of methyl cellulose were added to minimize the movement of Chlamydomonas sp. Ten random fields were counted and all organisms within the Whipple grid field were enumerated.
(§10) The following formula used to calculate the numbers per milliliter from the field counts: [formula] where: C=number of organisms counted,
(§11) The area of the Whipple grid used was 0.46 mm^2, and the depth of a field was 1 mm. Results of the counts were reported as algal units/ml.

[2] = system: Anabaena flos-aquae; assay: 300 ml batch culture of Anabaena flos-aquae, visual
Experimental: (§12) As a means of visually confirming some of the results batch cultures of 300 ml. of Anabaena flos-aquae and Chlorella vulgaris were grown.

[3] = system: Anabaena flos-aquae; assay: Test tube culture inhibition of Anabaena flos-aquae, algal units/ml
Experimental: as §1, §2, §3, §4, §5, §6, §7, §8, §9, §10, §11

[4] = system: Anabaena sp.; assay: Test tube culture inhibition of Anabaena sp., algal units/ml
Experimental: as §1, §2, §3, §4, §5, §6, §7, §8, §9, §10, §11

[5] = system: Chlorella vulgaris; assay: 300 ml batch culture of Chlorella vulgaris, visual; conditions: batch cultures, all concentrations
Experimental: as §12

[6] = system: Chlorella vulgaris; assay: Test tube culture inhibition of Chlorella vulgaris, algal units/ml
Experimental: as §1, §2, §3, §4, §5, §6, §7, §8, §9, §10, §11

[7] = 5 and 12 days, all concentrations

Question: How did the “effect on algal growth” value [1, 7] turn out when `CCCCCC[C@@H](O)C/C=C\CCCCCCCC(=O)O` [Ricinoleic Acid, ricinoleic acid] was run?
Answer: stimulatory effect

Question: What about the “concentration of maximum stimulatory effect” value ([1]; 5 days) of the same compound?
Answer: 5.0 PPM

Question: What about the Algal units/ml ([1]; 5 days, 0.5 PPM) of the same compound?
Answer: 18696 units/ml

Question: And the Algal units/ml ([1]; 5 days, 1.0 PPM)?
Answer: 29130 units/ml

Question: And the Algal units/ml ([1]; 5 days, 5.0 PPM)?
Answer: 32609 units/ml

Question: What about the Algal units/ml ([1]; 5 days, 10.0 PPM) of the same compound?
Answer: 13043 units/ml

Question: And the “concentration of maximum stimulatory effect” value ([1]; 12 days)?
Answer: 0.5 PPM

Question: And the Algal units/ml ([1]; 12 days, 0.5 PPM)?
Answer: 65217 units/ml

Question: What about the Algal units/ml ([1]; 12 days, 1.0 PPM) of the same compound?
Answer: 63043 units/ml

Question: And the Algal units/ml ([1]; 12 days, 5.0 PPM)?
Answer: 52174 units/ml

Question: What about the Algal units/ml ([1]; 12 days, 10.0 PPM) of the same compound?
Answer: 54348 units/ml

Question: What about the activation at 5 ppm ([1]; Chlamydomonas, 120 h, read-out: increase in number of algal units/ml of the control) of the same compound?
Answer: 183%

Question: And the “inhibition (visual)” value ([2]; 1 PPM)?
Answer: slightly inhibited

Question: And the “inhibition (visual)” value ([2]; 10 PPM)?
Answer: greatly inhibited

Question: And the “effect on algal growth” value [3, 7]?
Answer: inhibitory effect

Question: And the Algal units/ml ([3]; 5 days, 0.5 PPM)?
Answer: 435 units/ml

Question: What about the Algal units/ml ([3]; 5 days, 1.0 PPM) of the same compound?
Answer: 1087 units/ml

Question: And the Algal units/ml ([3]; 5 days, 5.0 PPM)?
Answer: 1087 units/ml

Question: What about the Algal units/ml ([3]; 5 days, 10.0 PPM) of the same compound?
Answer: 652 units/ml

Question: What about the Algal units/ml ([3]; 12 days, 0.5 PPM) of the same compound?
Answer: 10217 units/ml

Question: And the Algal units/ml ([3]; 12 days, 1.0 PPM)?
Answer: 6522 units/ml

Question: What about the Algal units/ml ([3]; 12 days, 5.0 PPM) of the same compound?
Answer: 4783 units/ml

Question: What about the “reduction in number of algal units/ml vs control” value ([3]; 12 days, 10 PPM) of the same compound?
Answer: 38,261 algal units/ml

Question: What about the Algal units/ml ([3]; 12 days, 10.0 PPM) of the same compound?
Answer: 3043 units/ml

Question: And the inhibition of growth at 10 ppm ([3]; Dolichospermum flos-aquae, 288 h, 12 days, 10 PPM, read-out: reduction in number of algal units/ml, % of the control)?
Answer: 92.6%

Question: What about the inhibition of growth at 5 ppm ([4]; 120 h, 5 days, 5.0 PPM, read-out: reduction of algal units/ml, % of the control) of the same compound?
Answer: 15.6%

Question: What about the inhibition of growth at 10 ppm ([4]; 120 h, 5 days, 10.0 PPM, read-out: reduction of algal units/ml, % of the control) of the same compound?
Answer: 30.6%

Question: And the Algal units/ml ([4]; 5 days, 0.5 PPM)?
Answer: 36522 units/ml

Question: What about the Algal units/ml ([4]; 5 days, 1.0 PPM) of the same compound?
Answer: 35652 units/ml

Question: What about the Algal units/ml ([4]; 5 days, 5.0 PPM) of the same compound?
Answer: 26957 units/ml

Question: What about the Algal units/ml ([4]; 5 days, 10.0 PPM) of the same compound?
Answer: 22174 units/ml

Question: What about the “reduction in algal units/ml vs control” value ([4]; 5 days, 10.0 PPM) of the same compound?
Answer: 9,783 algal units/ml

Question: What about the inhibition of growth at 0.5 ppm ([4]; 288 h, 12 days, 0.5 PPM (so in the source), read-out: reduction of algal units/ml, % of the control) of the same compound?
Answer: 59.7%

Question: What about the inhibition of growth at 10 ppm ([4]; 288 h, 12 days, 10 PPM, read-out: reduction of algal units/ml, % of the control) of the same compound?
Answer: 65.2%

Question: And the Algal units/ml ([4]; 12 days, 0.5 PPM)?
Answer: 97391 units/ml

Question: And the “reduction of algal units/ml vs control” value ([4]; 12 days, 0.5 PPM (so in the source))?
Answer: 70,434 algal units/ml

Question: What about the Algal units/ml ([4]; 12 days, 1.0 PPM) of the same compound?
Answer: 81957 units/ml

Question: And the Algal units/ml ([4]; 12 days, 5.0 PPM)?
Answer: 47609 units/ml

Question: What about the “reduction of algal units/ml vs control” value ([4]; 12 days, 10 PPM) of the same compound?
Answer: 76,956 algal units/ml

Question: What about the Algal units/ml ([4]; 12 days, 10.0 PPM) of the same compound?
Answer: 41087 units/ml

Question: And the “effect on growth” value ([4]; concentrations of 1.0 PPM or less)?
Answer: stimulatory effect

Question: What about the “inhibition (visual)” value [5] of the same compound?
Answer: no inhibition was noticed

Question: And the Algal units/ml ([6]; 5 days, 0.5 PPM)?
Answer: 20217 units/ml

Question: What about the Algal units/ml ([6]; 5 days, 1.0 PPM) of the same compound?
Answer: 21739 units/ml

Question: What about the Algal units/ml ([6]; 5 days, 5.0 PPM) of the same compound?
Answer: 22391 units/ml

Question: What about the Algal units/ml ([6]; 5 days, 10.0 PPM) of the same compound?
Answer: 20870 units/ml

Question: And the Algal units/ml ([6]; 12 days, 0.5 PPM)?
Answer: 217391 units/ml

Question: What about the Algal units/ml ([6]; 12 days, 1.0 PPM) of the same compound?
Answer: 326087 units/ml

Question: What about the Algal units/ml ([6]; 12 days, 5.0 PPM) of the same compound?
Answer: 326087 units/ml

Question: What about the Algal units/ml ([6]; 12 days, 10.0 PPM) of the same compound?
Answer: 326087 units/ml

Question: What about the activation at 0.5 ppm ([6]; Chlorella vulgaris, 120 h, 5 days, 0.5 PPM, read-out: more algal units/ml than in the control) of the same compound?
Answer: 86%

Question: What about the activation at 10 ppm ([6]; Chlorella vulgaris, 288 h, 12 days, 10 PPM, read-out: more algal units/ml than in the control) of the same compound?
Answer: 50%

Question: What about the “effect on algal growth” value ([6]; all concentrations at 5 days, 5 and 10 PPM at 12 days) of the same compound?
Answer: stimulatory effect
